{"source": "patent US9388419B2", "about": "(The Regents of the University of Colorado, a body corporate, priority 2009, dated 2016)", "key": {"E. coli Mach1-T1": {"tested_on": "E. coli Mach1-T1", "assay": "Minimum inhibitory concentration (MIC) of 3-HP, microaerobic, 96 well-plate, MOPS minimal media", "assay_type": "cell-based, Escherichia coli", "settings": "Mach1-T1 with feedback resistant aroH mutant plasmid, MOPS minimal media", "method": "Overnight cultures of strains were grown in 5 ml LB (with antibiotic where appropriate). A 1 v/v % was used to inoculate a 15 ml conical tube filled to the top with MOPS minimal media and capped. After the cells reached mid exponential phase, the culture was diluted to an OD600 of 0.200. The cells were further diluted 1:20 and a 10 ul aliquot was used to inoculate each well (˜10^4 cells per well).\nThe minimum inhibitory concentration (MIC) was determined microaerobically in a 96 well-plate format. Overnight cultures of strains were grown in 5 mL LB (with antibiotic where appropriate). A 1% (v/v) inoculum was introduced into a 15 ml culture of MOPS minimal media. After the cells reached mid-exponential phase, the culture was diluted to an OD600 of 0.200. The cells were further diluted 1:20 and a 10 μL aliquot was used to inoculate each well of a 96 well plate (˜10^4 cells per well)."}, "E. coli K12": {"tested_on": "E. coli K12", "assay_type": "cell-based, Escherichia coli", "settings": "E. coli K12+pSMART-LC-Kan-cynTS vs E. coli K12, M9 minimal media", "quoted_text": "Overnight cultures of strains were grown in 5 ml LB (with antibiotic where appropriate) at 37° C. in a shaking incubator. A 1 v/v % was used to inoculate 10 mL of M9 minimal media. After the cells reached mid-exponential phase, the culture was diluted to an OD600 of 0.200. The cells were further diluted 1:20 and a 10 ul aliquot was used to inoculate each well (˜10^4 cells per well). […] The MIC endpoint is the lowest concentration of compound at which there was no visible growth."}, "E. coli": {"tested_on": "E. coli", "assay_type": "cell-based, Escherichia coli", "settings": "anaerobic; strain BX_00319.0: BW25113 wild type + pK223-aroH; M9 + Amp 100 μg/mL + 1 mM IPTG", "method": "(§1) For MIC evaluations, the final results are expressed in chemical agent concentrations determined by analysis of the stock solution by HPLC (i.e., see Subsection Mb).\n(§2) The minimum inhibitory concentration (MIC) was determined anaerobically in a 96 well-plate format. […] Media supplements were added according to levels reported in the Supplements Table, where specified. Overnight cultures of strains were grown in triplicate in 5 mL LB (with antibiotic where appropriate). A 1% (v/v) inoculum was introduced into a 5 ml culture of M9 minimal media."}, "B. subtilis": {"tested_on": "B. subtilis", "assay": "MIC protocol B. subtilis aerobic (Common Methods, M9 media + glutamate, 24 hours)", "assay_type": "cell-based, Bacillus subtilis", "settings": "strain BSX_0003.0 (pWH1520, control), M9 + glu + trp + 1 mM Xylose", "method": "as §1\nas §2, with “aerobically” for “anaerobically”, “Table” for “Table,”, “media+glutamate.” for “media.”"}, "[1]": {"tested_on": "Yeast strains (S288C background)", "assay_type": "cell-based, Saccharomyces cerevisiae", "method": "The minimum inhibitory concentration (MIC) was determined aerobically in a 96 well-plate format. […] Media supplements were added according to levels reported in the Supplements Table, where specified. Overnight cultures of strains were grown in triplicate in 5 mL SD media with vitamins (Methods in Enzymology vol. 350, page 17 (2002)). A 1% (v/v) inoculum was introduced into a 5 ml culture of SD minimal media without vitamins. After the cells reached mid-exponential phase, the culture was diluted to an OD600 of 0.200. The cells were further diluted 1:5 and a 10 μL aliquot was used to inoculate each well of a 96 well plate (˜10^4 cells per well) to total volume of 100 uL. […] Plates were incubated for 72 hours at 30 C."}, "[2]": {"tested_on": "wild-type E. coli BW25113", "assay": "Toleragram / OD600 / doublings at 3HP 0-50 g/L, E. coli anaerobic", "assay_type": "cell-based, Escherichia coli", "settings": "control E. coli, anaerobic conditions, 24 hours", "method": "Overnight cultures of wild-type E. coli BW25113 were grown in triplicate in 5 mL standard LB medium. 100 uL of overnight cultures were used to inoculate triplicate 5 mL samples of M9 minimal medium+3HP, containing 47.7 mM Na2HPO4, 22 mM KH2PO4, 8.6 mM NaCl, 18.7 mM NH4Cl, 2 mM MgSO4, 0.1 mM CaCl2, and 0.4% glucose, with 3HP concentrations ranging from 0-50 g/L. Starting OD600 ranged from 0.02-0.08. Cultures were sparged with CO2 for 10 seconds, sealed, and incubated at 37 C for about 24 hours. OD600 was recorded every 1-2 hours during the first 8 hours with a final OD600 recorded at about 24 hours. For each data point the sample was opened, sampled, re-sparged with CO2, and sealed once again. Maximum specific growth rates (μmax) were calculated by determining the optimal fit of exponential trend lines with OD data for the evaluation period. Specific changes in OD600 over approximately 24 hours (Δ24hrOD600) were calculated as the difference in t=24 hr and t=0 optical density, Δ24hrOD600=(ODt=24)−(ODt=0). Specific number of doublings (Nd) were calculated by solving for N in the equation 2^N=(ODt=24)/(ODt=0)."}, "[3]": {"assay": "3-HP preparation (TCI America): behaviour of samples neutralized to pH 7.0", "assay_type": "physicochemical", "settings": "3-HP from TCI America, ether extracted, neutralized with 10 M NaOH to pH 7.0", "source_text": "(§3) 3-HP was obtained from TCI America (Portland, Oreg.). Significant acrylic acid and 2-oxydipropionic contamination was observed via HPLC analysis. Samples were subsequently treated by diethyl ether extraction to remove acrylic acid and a portion of the 2-oxydipropionic contaminants. Samples were then neutralized with 10 M NaOH to a final pH of 7.0. […] The working stock solution was used for the selection and MIC evaluations in this example.\nas §3, with “selection, growth rates” for “selection”"}}, "note": "Where two headings read alike, the source gives them in different places.", "data": [{"smiles": "O=C(O)CCO", "note": "[3-HP, 3-hydroxypropionic acid]", "values": [{"measurement": "improvement in MIC of 3-HP, cells comprising the aroH mutant vs control", "setting": "E. coli Mach1-T1", "result": 40, "unit": "%"}, {"measurement": "improvement in the MIC of 3-HP with cynTS plasmid", "setting": "E. coli K12", "result": "over sixty percent"}, {"measurement": "% Increase Over Control", "setting": "E. coli", "result": 33, "unit": "%"}, {"measurement": "Avg 24 hr ΔOD600", "setting": "B. subtilis", "result": 0.00}, {"measurement": "% Increase Over Control", "setting": "[1]; S288C, SC media, no supplement, versus SD control, aerobic", "result": 33, "unit": "%"}, {"measurement": "% Increase Over Control", "setting": "[1]; strain YX-022 (pyes2.1-Aro3 pRS425-ILV6) versus control, aerobic", "result": 50, "unit": "%"}, {"measurement": "% Increase Over Control", "setting": "[1]; strain YX-CJR-010 (pyes2.1-Thr1) versus YX-CJR-001, aerobic", "result": 50, "unit": "%"}, {"measurement": "% Increase Over Control", "setting": "[1]; strain YX-CJR-014 (pyes2.1-arg2) versus YX-CJR-001, aerobic", "result": 50, "unit": "%"}, {"measurement": "% Increase Over Control", "setting": "[1]; strain YX-CJR-017 (pyes2.1-Aro7) versus YX-CJR-001, aerobic", "result": 75, "unit": "%"}, {"measurement": "cell density response to 3-HP compared with aerobic condition", "setting": "[2]", "result": "relatively sharper and earlier drop"}, {"measurement": "concentration above which considerable 3-HP polymerization was observed at neutral pH", "setting": "[3]", "result": "> 35", "unit": "g/L"}, {"measurement": "concentration above which considerable insoluble matter was observed at neutral pH", "setting": "[3]", "result": "> 35", "unit": "g/L"}]}]}
